Experimental data reported in patent publication US9763445B2, “Safened herbicidal compositions comprising a pyridine carboxylic acid herbicide” (Dow AgroSciences, LLC, priority 2014, dated 2017).

What was measured:
[1] = tested on: wild buckwheat (POLCO); experiment: Postemergence greenhouse trial, % visual injury on wild buckwheat; type: in vivo, Polygonum convolvulus; details: alone, 35 g/ha
Method: (§1) Seeds of the desired test plant species were planted in Sun Gro MetroMix® 306 planting mixture, which typically has a pH of 6.0 to 6.8 and an organic matter content of about 30 percent, in plastic pots with a surface area of 103.2 square centimeters (cm^2). When required to ensure good germination and healthy plants, a fungicide treatment and/or other chemical or physical treatment was applied. The plants were grown for 7-36 days (d) in a greenhouse with an approximate 14-hour (h) photoperiod which was maintained at about 23° C. during the day and 22° C. during the night. Nutrients and water were added on a regular basis and supplemental lighting was provided with overhead metal halide 1000-Watt lamps as necessary. The plants were employed for testing when they reached the second or third true leaf stage.
(§2) Weighed amounts of technical material were dissolved in a volume of 97:3 volume per volume (v/v) acetone/dimethyl sulfoxide (DMSO) to stock solutions. […] The concentrated stock solutions were diluted with an aqueous mixture of 1.5% v/v of Agri-dex crop oil concentrate to provide the appropriate application rates. Compound requirements are based upon a 12 milliliter (mL) application volume at a rate of 187 liters per hectare (L/ha). Stocks solutions of the safeners were prepared following the same procedure. Spray solutions of the safeners and experimental compound mixtures were prepared by adding the stock solutions to the appropriate amount of dilution solution to form a 12 mL spray solution in two-way combinations. Formulated compounds were applied to the plant material with an overhead Mandel track sprayer equipped with 8002E nozzles calibrated to deliver 187 L/ha over an application area of 0.503 square meters (m^2) at a spray height of 18 inches (43 centimeters (cm)) above average plant canopy. Control plants were sprayed in the same manner with the solvent blank. All herbicide application (component a) rates are in g ae/ha and all safener (component b) rates are in g ai/ha.
(§3) The treated plants and control plants were placed in a greenhouse as described above and watered by sub-irrigation to prevent wash-off of the test compounds. After 20-22 d, the condition of the test plants as compared with that of the control plants was determined visually and scored on a scale of 0 to 100 percent where 0 corresponds to no injury and 100 corresponds to complete kill. The condition of the test plants was compared with that of the control plants as determined visually and scored on a scale of 0 to 100 percent, where 0 corresponds to no injury and 100 corresponds to complete kill. Colby's equation was used to determine the herbicidal effects expected from the mixtures.
(§4) The safener cloquintocet-mexyl was combined with compound 1, compound 2, compound 4, compound 5, and compound 6, and applied to corn/maize (ZEAMX) and spring wheat (TRZAS) and the phytotoxicity of the herbicidal compositions was measured. In addition, the efficacy of the herbicidal composition on velvetleaf (ABUTH, Abutilon theophrasti), pigweed (AMARE, Amaranthus retroflexus), winter rape (BRSNW, Brassica napus), lambsquarters (CHEAL, Chenopodium album), thistle (CIRAR, Cirsium arvense), nutsedge (CYPES, Cyperus esculentus), poinsettia (EPHHL, Euphorbia heterophylla), wild buckwheat (POLCO, Polygonum convolvulus), giant foxtail (SETFA, Setaria faberi), and chickweed (STEME, Stellaria media) was evaluated.
(§5) The safener cloquintocet-mexyl was combined with compound 1, compound 2, compound 3, compound 7, compound 8, compound 9, compound 10, compound 11, compound 12, compound 13, compound 14, compound 15, compound 16, compound 17, compound 18, compound 19, and compound 20, and applied to spring wheat (TRZAS), winter wheat (TRZAW), and spring barley (HORVS) and the phytotoxicity of the herbicidal compositions was measured. […]

[2] = tested on: thistle (CIRAR); experiment: Postemergence greenhouse trial, % visual injury on thistle; type: in vivo, Cirsium arvense; details: Cirsium arvense, post-emergence; alone, 35 g/ha; read-out: % visual injury, Ob
Method: as §1, §2, §3
as §4, with “evaluated. […]” for “evaluated.”

[3] = tested on: poinsettia (EPHHL); experiment: Postemergence greenhouse trial, % visual injury on poinsettia; type: in vivo, Euphorbia heterophylla; details: alone, 35 g/ha
Method: as §1
(§6) Weighed amounts of technical material were dissolved in a volume of 97:3 volume per volume (v/v) acetone/dimethyl sulfoxide (DMSO) to stock solutions. […] The concentrated stock solutions were diluted with an aqueous mixture of 1.5% v/v of Agri-dex crop oil concentrate to provide the appropriate application rates. Compound requirements are based upon a 12 milliliter (mL) application volume at a rate of 187 liters per hectare (L/ha). Stocks solutions of the safeners were prepared following the same procedure. […]
as §3, with “Colby's equation was used to determine the herbicidal effects expected from the mixtures.” left out
as §4, with “evaluated. […]” for “evaluated.”

[4] = tested on: giant foxtail (SETFA); experiment: Postemergence greenhouse trial, % visual injury on giant foxtail; type: in vivo, Setaria faberi; details: alone, 35 g/ha
Method: as §1
as §6, with “(L/ha).” for “(L/ha). Stocks solutions of the safeners were prepared following the same procedure.”
as §3, with “Colby's equation was used to determine the herbicidal effects expected from the mixtures.” left out
The safener cloquintocet-mexyl was combined with compound 1, compound 2, compound 4, compound 5, and compound 6, and applied to corn/maize (ZEAMX) and spring wheat (TRZAS) and the phytotoxicity of the herbicidal compositions was measured. […]

[5] = tested on: chickweed (STEME); experiment: Postemergence greenhouse trial, % visual injury on chickweed; type: in vivo, Stellaria media; details: alone, 35 g/ha
Method: as §1, §2, §3
as §4, with “evaluated. […]” for “evaluated.”

[6] = tested on: corn/maize (ZEAMX); experiment: Postemergence greenhouse trial, % visual injury on corn/maize; type: in vivo, Zea mays; details: alone, 35 g/ha
Method: as §1, §2, §3
as §4, with “evaluated. […]” for “evaluated.”

[7] = tested on: lambsquarters (CHEAL); experiment: Postemergence greenhouse trial, % visual injury on lambsquarters; type: in vivo, Chenopodium album; details: Chenopodium album, post-emergence; alone, 35 g/ha; read-out: % visual injury, Ob
Method: as §1, §2, §3, §4, §5

[8] = tested on: spring wheat (TRZAS); experiment: Postemergence greenhouse trial, % visual injury on spring wheat; type: in vivo, Triticum aestivum; details: alone, 35 g/ha
Procedure, shortened: (§7)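 Injury was scored visually (0 = none, 100 = complete kill) 20–22 d after track-sprayer application at 187 L/ha, compared with solvent-sprayed controls. Test plants at the 2–3 true leaf stage; herbicide (g ae/ha) plus cloquintocet-mexyl safener (g ai/ha) in crop-oil-containing spray; expected mixture response by Colby.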

[9] = tested on: pigweed (AMARE); experiment: Postemergence greenhouse trial, % visual injury on pigweed; type: in vivo, Amaranthus retroflexus; details: Amaranthus retroflexus, post-emergence; alone, 35 g/ha; read-out: % visual injury, Ob
Procedure, shortened: as §7

[10] = tested on: velvetleaf (ABUTH); experiment: Postemergence greenhouse trial, % visual injury on velvetleaf; type: in vivo, Abutilon theophrasti; details: alone, 35 g/ha
Method: as §1, §2, §3, §4, §5

[11] = tested on: winter rape (BRSNW); experiment: Postemergence greenhouse trial, % visual injury on winter rape; type: in vivo, Brassica napus; details: Brassica napus, post-emergence; alone, 35 g/ha; read-out: % visual injury, Ob
Procedure, shortened: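 Visual injury, 0 (none) to 100 (complete kill), rated 20-22 d after overhead track-sprayer application at 187 L/ha; Colby's equation gave expected mixture responses. Herbicide (g ae/ha) and cloquintocet-mexyl safener (g ai/ha) diluted in aqueous 1.5% v/v Agri-dex, applied to weeds at 2–3 true leaves.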

`COC(=O)c1nc(-c2ccc3ccn(C(=O)C(C)(C)C)c3c2F)c(F)c(N)c1Cl` [compound 5] was tested, and the “% visual injury, Ob” value [1] was 100%, the pest or weed control at 35 g/ha [2] was 80% and the “% visual injury, Ob” value [3] was 100%. For the same compound, the “% visual injury, Ob” value [4] was 60%, the “% visual injury, Ob” value [5] was 85% and the “% visual injury, Ob” value [6] was 35%. The pest or weed control at 35 g/ha [7] was 100%, the “% visual injury, Ob” value [8] was 45% and the pest or weed control at 35 g/ha [9] was 100%. The “% visual injury, Ob” value [10] was 80% and the plant injury at 35 g/ha [11] was 97%.
